In US9115166B2, “Rebaudioside A derivative products and methods for making” (The Coca-Cola Company, priority 2008, dated 2015):
Marks after values point to notes of the source that are not given here.

Experiments:
[1] = Quality of sweetness: sensory attributes scored on a 15-point unstructured line scale; type: in vivo; set-up: key to Stale Flavor / Metallic Flavor / Mouth Numbing / Mouthburn / Stale Aftertaste / Metallic Aftertaste / Overall Aroma / Sweet Aromatic Aroma / Stale Aroma: scores on a 15-point unstructured line scale; conditions: for Metallic Aftertaste / Metallic Flavor / Mouth Numbing / Mouthburn / Stale Flavor / Overall Aroma / Stale Aftertaste / Stale Aroma / Sweet Aromatic Aroma / Astringency / Bitterness / Bitterness Aftertaste / Black Licorice Aftertaste / Black Licorice Flavor / Cooling / Overall Aftertaste / Overall Flavor / Sweet Aromatic Aftertaste / Sweet Aromatic Flavor / Sweetness / Sweetness Aftertaste: mean score, 15-point line scale, two replications, room temperature; for Overall Aroma / Stale Aftertaste / Stale Aroma / Sweet Aromatic Aroma: more than 50% of responses zero; for Astringency / Bitterness / Bitterness Aftertaste / Black Licorice Aftertaste / Black Licorice Flavor / Cooling / Overall Aftertaste / Overall Flavor / Sweet Aromatic Aftertaste / Sweet Aromatic Flavor / Sweetness / Sweetness Aftertaste: same superscript letter = not significantly different (95%); for characteristics which were not significantly different from sucrose (number): Fisher's LSD 5%, 95% confidence level
Procedure: The quality of sweetness of the rebaudioside A derivative products 1 (II), 2 (IV), 3 (III), and 4 (V) also was evaluated and compared to that of rebaudioside A, rebaudioside B, rebaudioside F, and sucrose at room temperature. For each attribute, the sweeteners received a score based on a 15-point unstructured line scale. […] A multiple comparison test, Fisher's LSD 5%, aided in the comparative analysis of the scores.

[2] = Sweetness intensity of a water sample of derivative product compared with a water sample of sucrose (Example 4); type: in vivo; conditions: for Sweetness Intensity of Derivative Product (as compared to equivalent amount of sucrose): in water, amount of sample by weight: 1 (II) 3.6 %, 2 (IV) 1.1 %, 3 (III) 9.7 %, 4 (V) 6 %
Procedure: The sweetness intensity of the foregoing rebaudioside A derivative products was analyzed by comparing the sweetness intensity of a water sample having a particular amount of sucrose with a second water sample having an identical amount of a rebaudioside A derivative product.

[3] = Sweetness potency of derivative products compared to sucrose at iso-sweetness levels (Example 1); conditions: in vivo
From the text: These rebaudioside A derivative products were characterized as having an intense sweetening potency. […] Thus, the rebaudioside A derivative products are suitable for use as sweeteners for sweetenable compositions.

Compound	Metallic Aftertaste [1]	Metallic Flavor [1]	Mouth Numbing [1]	Mouthburn [1]	Stale Flavor [1]	Overall Aroma [1]	Stale Aftertaste [1]	Stale Aroma [1]	Sweet Aromatic Aroma [1]	Astringency [1]	Bitterness [1]	Bitterness Aftertaste [1]	Black Licorice Aftertaste [1]	Black Licorice Flavor [1]	Cooling [1]	Overall Aftertaste [1]	Overall Flavor [1]	Sweet Aromatic Aftertaste [1]	Sweet Aromatic Flavor [1]	Sweetness [1]	also measured
C=C1C[C@@]23CC[C@H]4[C@@](C)(CCC[C@@]4(C)C(=O)OC4OC(CO)C(O)C(O)C4O)[C@@H]2CC[C@]1(OC1OC(CO)C(O)C(OC2OC(CO)C(O)C(O)C2O)C1OC1OC(CO)C(O)C(O)C1O)C3 (stereo partly shown) [Reb. A, Rebaudioside A]	0.80	0.97	0.76	1.29	0.89	0.16	0.48	0.00	0.14	3.14^ab	3.43^a	2.21^a	1.47^a	2.31^a	1.10^a	6.34^a	9.88^a	0.50^bcd	0.71^ab	9.59^a	Sweetness Aftertaste [1]: 5.91^a
CC1=CC23CCC4C(C)(C(=O)OC5OC(CO)C(O)C(O)C5O)CCCC4(C)C2CCC1(OC1OC(CO)C(O)C(OC2OC(CO)C(O)C(O)C2O)C1OC1OC(CO)C(O)C(O)C1O)C3 [Derivative Product 2 (IV), 13-[(2-O-β-D-glucopyranosyl-3-O-β-D-glucopyranosyl-β-D-glucopyranosyl)oxy]kaur-15-en-18-oic acid β-D-glucopyranosyl ester]	0.88	0.82	0.97	1.45	1.21	0.09	0.74	0.06	0.00	2.90^ab	2.86^ab	1.82^ab	0.00^c	0.07^d	0.12^c	2.35^d	3.58^c	0.20^cd	0.19^bc	1.14^d	characteristics which were not significantly different from sucrose (number) [1]: 8; overall flavor and sweetness relative to sucrose ([1]; in vivo): comparable to sucrose; Sweetness Aftertaste [1]: 0.41^d; Sweetness Intensity of Derivative Product (as compared to equivalent amount of sucrose) [2]: 20
CC1(C(=O)O)CCCC2(C)C3CCC4(OC5OC(CO)C(O)C(OC6OC(CO)C(O)C(O)C6O)C5OC5OC(CO)C(O)C(O)C5O)CC3(CCC12)CC4(C)O [Derivative Product 3 (III), 13-[(2-O-β-D-glucopyranosyl-3-O-β-D-glucopyranosyl-β-D-glucopyranosyl)oxy]-16-hydroxy kauran-18-oic acid]	0.83	1.02	1.09	1.15	0.63	0.09	0.41	0.00	0.08	3.27^a	2.90^ab	1.75^abc	1.37^a	1.84^ab	0.57^b	5.72^ab	10.02^a	0.68^abc	0.77^ab	9.73^a	Sweetness Aftertaste [1]: 5.38^ab; taste quality [3]: sweet clean taste similar to sugar; Sweetness Intensity of Derivative Product (as compared to equivalent amount of sucrose) [2]: 190
CC1=CC23CCC4C(C)(C(=O)O)CCCC4(C)C2CCC1(OC1OC(CO)C(O)C(OC2OC(CO)C(O)C(O)C2O)C1OC1OC(CO)C(O)C(O)C1O)C3 [Derivative Product 4 (V), 13-[(2-O-β-D-glucopyranosyl-3-O-β-D-glucopyranosyl-β-D-glucopyranosyl)oxy]kaur-15-en-18-oic acid]	0.63	0.87	0.90	1.23	0.77	0.19	0.47	0.09	0.00	3.01^ab	2.08^cde	1.38^bcd	1.25^a	1.40^bc	0.70^ab	5.24^b	6.44^b	0.83^ab	0.75^ab	6.04^b	characteristics which were not significantly different from sucrose (number) [1]: 8; Sweetness Aftertaste [1]: 4.85^b; taste quality [3]: sweet clean taste similar to sugar; Sweetness Intensity of Derivative Product (as compared to equivalent amount of sucrose) [2]: 120
CC1(C(=O)OC2OC(CO)C(O)C(O)C2O)CCCC2(C)C3CCC4(OC5OC(CO)C(O)C(OC6OC(CO)C(O)C(O)C6O)C5OC5OC(CO)C(O)C(O)C5O)CC3(CCC12)CC4(C)O [Derivative Product 1 (II), 13-[(2-O-β-D-glucopyranosyl-3-O-β-D-glucopyranosyl-β-D-glucopyranosyl)oxy]-16-hydroxy kauran-18-oic acid β-D-glucopyranosyl ester]	0.67	0.71	0.38	1.11	1.01	0.17	0.56	0.10	0.04	2.38^c	2.28^bcd	1.32^cd	0.00^c	0.00^d	0.29^bc	2.18^d	3.14^c	0.09^d	0.06^c	1.54^d	Sweetness Aftertaste [1]: 0.70^d; Sweetness Intensity of Derivative Product (as compared to equivalent amount of sucrose) [2]: 30; sweetness intensity, times that of sucrose ([2]; water solution vs same weight percentage of sucrose, 3.6 weight percent for 1 (II)): at least 30 times
OC[C@H]1O[C@@](CO)(O[C@H]2O[C@H](CO)[C@@H](O)[C@H](O)[C@H]2O)[C@@H](O)[C@@H]1O [Sucrose, sucrose, reference compound]	0.67	1.04	0.57	1.06	0.50	0.40	0.58	0.11	0.24	3.03^ab	1.47^e	0.97^d	0.26^c	0.13^d	0.38^bc	5.05^b	10.73^a	1.01^a	1.12^a	10.45^a	Sweetness Aftertaste [1]: 4.76^b
rebaudioside B [Reb. B, reference compound]	0.47	0.82	0.54	0.97	0.92	0.28	0.63	0.26	0.00	2.79^bc	1.72^de	1.07^d	0.80^b	0.89^c	0.57^b	3.54^c	4.20^c	0.46^bcd	0.54^abc	3.55^c	Sweetness Aftertaste [1]: 3.11^c
rebaudioside F [Reb. F, reference compound]	0.88	1.13	0.98	1.35	1.14	0.29	0.81	0.00	0.18	3.28^a	2.64^bc	1.70^bc	0.75^b	0.88^c	0.57^b	3.89^c	5.38^b	0.46^bcd	0.59^abc	4.98^b	Sweetness Aftertaste [1]: 3.34^c
